Values quoted from earlier work as cited in PMC5588751 (Nanotheranostics, 2017).

Tested on: blood-brain barrier (BBB)
Settings: [20]

With Ac-SHAVAS-NH2 [HAV4] as the substance, how does the “Brain delivery of Gd-DTPA (small molecular weight marker)” value (dose-dependent manner, MRI, ref [17], [18]) read?
The value was “significantly enhanced”.

What about the “Duration of BBB opening for Gd-DTPA (small molecule)” value (pretreatment studies with Gd-DTPA detected by MRI, ref [18]) of the same substance?
The value was “less than 1 h”.
